Measured values from patent publication US12421496B2, “Method for producing natural killer cell and use thereof” (KOREA RESEARCH INSTITUTE OF BIOSCIENCE AND BIOTECHNOLOGY, priority 2017, dated 2025).

B1: IL-7: human interleukin 7, cytokine additive (protein, UniProt P13232 26-177, looked up)
Interleukin-7: DCDIEGKDGKQYESVLMVSIDQLLDSMKEIGSNCLNNEFNFFKRHICDANKEGMFLFRAARKLRQFLKMNSTGDFDLHLLKVSEGTTILLNCTGQVKGRKPAALGEAQPTKSLEENKSLKEQKKLNDLCFLKRLLQEIKTCWNKILMGTKEH

What was measured:
[1] = system: PBMC into which OSKM was introduced; assay: Efficiency of direct reprogramming depending on composition of NKIM-I medium; assay type: cell-based, human; settings: single additive in NKIM-I medium compared with the condition without additives
Description: (§1) After introducing reprogramming factors (Oct4, Sox2, Klf4, and Myc) into PBMC cultured in the NKIM-I medium and NKIM-II medium, a mixture additive was added to the medium for analysis to promote the production capacity of natural killer cells produced by direct reprogramming.
Specifically, in the case of NKIM-I medium, after introducing OSKM into PBMC, the following day, 1×10^5 transformed cells were added to a 48-well culture dish in the reprogramming culture process with different combinations of 5 μM CHIR 99021, 2 mM LiCl, […], and 20 ng/mL human IL-15 in NKIM-I medium, and the production capacity of CD56+ induced natural killer cells was thereby confirmed.

[2] = system: PBMC cells into which OSKM was introduced; assay: Efficiency of direct reprogramming depending on composition of NKIM-II medium; assay type: cell-based, human; settings: added to NKIM-II medium, cultured for 29 days after 6 days in NKIM-I
Description: as §1
In the case of NKIM-II medium, after introducing OSKM into PBMC cells, the following day, 1×10^5 transformed cells were added to a 48-well culture dish and cultured in NKIM-I medium for 6 days, and then these cells were cultured for 29 days in a medium in which StemRegenin I, which is an aryl hydrocarbon receptor antagonist, CH-223191, or FICZ, which is an aryl hydrocarbon receptor agonist, was added to NKIM-II.

SW620 = assay: In vivo anti-cancer effect, subcutaneous SW620 tumor in nude mice; set-up: species or system Balb/c-nude mouse; settings: 2 mg/kg i.p. every other day for two weeks; day 28
Description: In addition, in vivo experiments were performed using mice to verify the anti-cancer effect of induced natural killer cells. The day after subcutaneous injection of 2×10^6 Sw620 into the back of 8-week-old nude mice (Balb/c-nude mouse, average weight 20 g to 25 g), induced natural killer cells (5×10^6, 1.5×10^7) and 2 mg/kg of doxorubicin were injected. Induced natural killer cells were injected intravenously (i.v.) twice on D1 and D4, and doxorubicin was injected intraperitoneally (i.p) every two days (every other day) for two weeks. On the 28th day, the mice of each group were sacrificed by cervical dislocation technique, and the protruding cancer masses formed under the skin of the mice of each group were extracted. The extracted Sw620 cancer was compared by group to confirm the anti-cancer effect of induced natural killer cells (FIG. 13A).

PBMC (CD34−CD56−) cells = assay: Role of GSK3β inhibitor in direct reprogramming from PBMC to natural killer cells, flow cytometry; assay type: cell-based, human; settings: when CT99021 (5 μM) was not added to NKIM-I medium, compared with added; 24th day
Description: On the 24th day when direct reprogramming was started as in Example 1, the cells were recovered and stained using antibodies against CD56 and CD4 attached with fluorescence and then the group of natural killer cells (CD56^+ and CD4^−) was analyzed by flow cytometry.

Molecule | production of CD56+CD3− induced natural killer cells [1] | yield of induced natural killer cells [2] | further results
IL-15: human interleukin 15, cytokine additive | effect of promoting the production | – | –
CC(C)n1cnc2c(NCCc3ccc(O)cc3)nc(-c3csc4ccccc34)nc21.Cl [StemRegenin I, (4-(2-((2-benzo[b]thiphen-3-yl)-9-isopropyl-9H-purin-6-yl)amino)ethyl)phenol hydrochloride] | effect of promoting the production | significantly increased | –
COc1cccc2c1C(=O)c1c(O)c3c(c(O)c1C2=O)C[C@@](O)(C(=O)CO)C[C@@H]3O[C@H]1C[C@H](N)[C@H](O)[C@H](C)O1 [doxorubicin] | – | – | tumor size (SW620): 262 mm^3
Cc1ccccc1N=Nc1ccc(NC(=O)c2ccnn2C)c(C)c1 [CH-223191] | – | significantly increased | –
Cc1c[nH]c(-c2cnc(NCCNc3ccc(C#N)cn3)nc2-c2ccc(Cl)cc2Cl)n1 [CT99021] | effect of promoting the production | – | differentiation into natural killer cells (CD56+ and CD4−) (PBMC (CD34−CD56−) cells): significantly lowered
O=Cc1c2[nH]c3ccccc3c2cc2[nH]c3ccccc3c12 [FICS] | – | significantly reduced | –
[Cl-].[Li+] [LiCl] | effect of promoting the production | – | –
B1 | effect of promoting the production | – | –
